# According to patent US8530489B2 (Vertex Pharmaceuticals Incorporated, priority 2006, dated 2013):
# How the values were obtained:
# Format in all cases: biochemical
# PLK1 = PLK1 (Homo sapiens, UniProt P53350); assay: PLK1 Inhibition Assay I (radioactive-phosphate incorporation); conditions: Ki(app); PLK1 Inhibition Assay I or II (table does not say which)
# Procedure, shortened: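 Ki(app) values came from non-linear regression of initial rates after background subtraction, with phosphopeptide measured by phosphocellulose filter binding and scintillation counting. PLK1 at 2 nM was preincubated with compound (typically from 10 μM, 2-fold dilutions) for 10 min, then run 240 min at 25° C with 350 μM [γ-33P]ATP and 450 μM peptide substrate in HEPES pH 7.5 buffer.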
# PLK3 (S38-A340) = target: T1, PLK3 (S38-A340) (Homo sapiens, UniProt Q9H4B4); assay: PLK3 Inhibition Assay (radioactive-phosphate incorporation); conditions: selectivity ratio, PLK3 over PLK1
# T1 construct: in the presence of 5 nM PLK3 (S38-A340)
# T1 sequence (Q9H4B4 58-340 limits assumed): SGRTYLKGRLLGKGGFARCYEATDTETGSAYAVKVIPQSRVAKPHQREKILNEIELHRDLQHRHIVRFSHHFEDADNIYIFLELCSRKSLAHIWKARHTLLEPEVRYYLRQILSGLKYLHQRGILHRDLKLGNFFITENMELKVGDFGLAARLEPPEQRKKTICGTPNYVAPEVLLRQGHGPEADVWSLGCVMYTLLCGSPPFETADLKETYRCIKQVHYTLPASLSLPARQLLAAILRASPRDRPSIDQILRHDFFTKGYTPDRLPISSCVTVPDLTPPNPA
# Method: (§1) The compounds of the present invention are evaluated as inhibitors of human PLK kinase using the following assays.
# Compounds were screened for their ability to inhibit PLK3 using a radioactive-phosphate incorporation assay. Assays were carried out in a mixture of 25 mM HEPES (pH 7.5), 10 mM MgCl2, and 1 mM DTT. Final substrate concentrations were 75 μM [γ-33P]ATP (60 mCi 33P ATP/mmol ATP, Amersham Pharmacia Biotech/Sigma Chemicals) and 10 μM peptide (SAM68 protein Δ332-443). Assays were carried out at 25° C. in the presence of 5 nM PLK3 (S38-A340). An assay stock buffer solution was prepared containing all of the reagents listed above, with the exception of ATP and the test compound of interest. 30 μL of the stock solution was placed in a 96 well plate followed by addition of 2 μL of DMSO stock containing serial dilutions of the test compound (typically starting from a final concentration of 10 μM with 2-fold serial dilutions) in duplicate (final DMSO concentration 5%). The plate was pre-incubated for 10 minutes at 25° C. and the reaction initiated by addition of 8 μL [γ-33P]ATP (final concentration 75 μM).
# (§2) The reaction was stopped after 60 minutes by the addition of 100 μL 0.14M phosphoric acid. A multiscreen phosphocellulose filter 96-well plate (Millipore, Cat No. MAPHN0B50) was pretreated with 100 μL 0.2M phosphoric acid prior to the addition of 125 μL of the stopped assay mixture. The plate was washed with 4×200 μL 0.2 M phosphoric acid. After drying, 100 μL Optiphase ‘SuperMix’ liquid scintillation cocktail (Perkin Elmer) was added to the well prior to scintillation counting (1450 Microbeta Liquid Scintillation Counter, Wallac).
# (§3) After removing mean background values for all of the data points, Ki(app) data were calculated from non-linear regression analysis of the initial rate data using the Prism software package (GraphPad Prism version 3.0cx for Macintosh, GraphPad Software, San Diego Calif., USA).
# PLK2 = PLK2 (Homo sapiens, UniProt Q9NYY3); assay: PLK2 Inhibition Assay (radioactive-phosphate incorporation); conditions: selectivity ratio, PLK2 over PLK1
# Chain of PLK2 (Q9NYY3 whole entry): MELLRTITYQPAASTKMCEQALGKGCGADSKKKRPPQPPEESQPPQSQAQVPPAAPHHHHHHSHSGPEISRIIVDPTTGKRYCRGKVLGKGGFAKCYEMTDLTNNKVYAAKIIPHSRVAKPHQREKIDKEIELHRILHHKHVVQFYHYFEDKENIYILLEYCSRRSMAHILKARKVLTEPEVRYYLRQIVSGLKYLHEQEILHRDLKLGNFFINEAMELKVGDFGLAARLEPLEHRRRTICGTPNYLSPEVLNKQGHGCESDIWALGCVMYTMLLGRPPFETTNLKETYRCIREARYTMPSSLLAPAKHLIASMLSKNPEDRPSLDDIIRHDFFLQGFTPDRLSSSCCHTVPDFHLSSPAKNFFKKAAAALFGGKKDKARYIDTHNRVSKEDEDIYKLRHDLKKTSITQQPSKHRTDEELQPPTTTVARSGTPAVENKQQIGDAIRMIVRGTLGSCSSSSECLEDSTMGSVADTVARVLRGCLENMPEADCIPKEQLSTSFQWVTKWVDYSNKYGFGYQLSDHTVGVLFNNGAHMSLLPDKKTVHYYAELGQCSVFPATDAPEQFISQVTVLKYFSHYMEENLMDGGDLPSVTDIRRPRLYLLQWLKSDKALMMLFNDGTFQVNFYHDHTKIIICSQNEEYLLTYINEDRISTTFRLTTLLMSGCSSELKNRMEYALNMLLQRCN
# Method: as §1
# Compounds were screened for their ability to inhibit PLK2 using a radioactive-phosphate incorporation assay. Assays were carried out in a mixture of 25 mM HEPES (pH 7.5), 10 mM MgCl2, 0.1% BSA, and 2 mM DTT. Final substrate concentrations were 200 μM [γ-33P]ATP (57 mCi 33P ATP/mmol ATP, Amersham Pharmacia Biotech/Sigma Chemicals) and 300 μM peptide (KKKISDELMDATFADQEAK) [SEQ ID:3]. Assays were carried out at 25° C. in the presence of 25 nM PLK2. An assay stock buffer solution was prepared containing all of the reagents listed above, with the exception of ATP and the test compound of interest. 30 μL of the stock solution was placed in a 96 well plate followed by addition of 2 μL of DMSO stock containing serial dilutions of the test compound (typically starting from a final concentration of 10 μM with 2-fold serial dilutions) in duplicate (final DMSO concentration 5%). The plate was pre-incubated for 10 minutes at 25° C. and the reaction initiated by addition of 8 μL [γ-33P]ATP (final concentration 200 μM).
# as §2, with “90” for “60”, “0.14 M” for “0.14M”
# as §3
# Chain of PLK1 (P53350 whole entry): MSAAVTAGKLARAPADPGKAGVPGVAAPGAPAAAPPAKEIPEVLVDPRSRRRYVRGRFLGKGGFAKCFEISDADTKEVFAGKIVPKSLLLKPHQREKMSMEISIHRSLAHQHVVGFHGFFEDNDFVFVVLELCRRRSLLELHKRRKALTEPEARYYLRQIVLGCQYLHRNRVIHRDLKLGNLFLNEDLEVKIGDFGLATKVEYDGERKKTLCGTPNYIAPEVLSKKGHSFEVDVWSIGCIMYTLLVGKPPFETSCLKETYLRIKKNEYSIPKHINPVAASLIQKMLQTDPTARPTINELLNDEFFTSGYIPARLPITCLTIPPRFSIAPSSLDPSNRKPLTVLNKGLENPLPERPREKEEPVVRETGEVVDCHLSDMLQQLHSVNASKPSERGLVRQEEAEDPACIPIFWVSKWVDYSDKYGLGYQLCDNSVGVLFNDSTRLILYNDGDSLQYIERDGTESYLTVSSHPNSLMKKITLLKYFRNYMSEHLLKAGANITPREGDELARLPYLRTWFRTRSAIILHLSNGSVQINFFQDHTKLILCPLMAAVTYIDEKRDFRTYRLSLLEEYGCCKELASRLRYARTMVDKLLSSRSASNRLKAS
Compound,Ki (PLK1),Ki(PLK3)/Ki(PLK1) (PLK3 (S38-A340)),Ki(PLK2)/Ki(PLK1) (PLK2)
"CNCCNc1ccc(C(C)Nc2ncc(C#N)c(-c3c[nH]c4ncc(C(F)(F)F)cc34)n2)cn1 (stereo not drawn) [Compound I-278, 2-(1-(6-(2-(methylamino)ethylamino)pyridin-3-yl)ethylamino)-4-(5-(trifluoromethyl)-1H-pyrrolo[2,3-b]pyridin-3-yl)pyrimidine-5-carbonitrile]",< 3 nM,142,208
"CC(Nc1ncc(C#N)c(-c2c[nH]c3ncc(C(F)(F)F)cc23)n1)c1ccc(N2CCCN(C)CC2)cc1 (stereo not drawn) [Compound I-126, 2-(1-(4-(4-methyl-1,4-diazepan-1-yl)phenyl)ethylamino)-4-(5-(trifluoromethyl)-1H-pyrrolo[2,3-b]pyridin-3-yl)pyrimidine-5-carbonitrile]",< 3 nM,126,211
"CC(Nc1ncc(C#N)c(-c2c[nH]c3ncc(C(F)(F)F)cc23)n1)c1ccc(N2CCN(C)CC2)nc1 (stereo not drawn) [Compound I-139, 2-(1-(6-(4-methylpiperazin-1-yl)pyridin-3-yl)ethylamino)-4-(5-(trifluoromethyl)-1H-pyrrolo[2,3-b]pyridin-3-yl)pyrimidine-5-carbonitrile]",< 3 nM,456,1000
